We go through two molecules from patent EP3481220B1, “SWEET RAPESEED PROTEIN ISOLATE AND PROCESS FOR OBTAINING IT” (DSM IP Assets B.V., priority 2016, dated 2018).

Data set [1] can be described thus: Conductivity in aqueous solution (conductivity meter). Format: physicochemical. The conditions noted are these: aqueous 5 g/l solution; given for comparison.
A short description of data set [2]: Equal sweetness, sensory panel, versus sucrose solutions. The data set is classed as in vivo. The note with it: scored against the reference = 50, line scale 0-100. The text has this:
The flavor characteristics can be evaluated by a sensory panel using techniques known in the art. Investigating the effects of flavor, mouthfeel and aftertaste requires an extended evaluation of the products and this was done by using Quantitative Descriptive Analysis (QDA). Therefore, a sensory panel assessed the protein products taking in account Good Sensory Practices. During the QDA measurement the intensities of the attributes were obtained by the Fizz sensory data acquisition system, using unstructured line scales ranging from 0-100. The products were evaluated twice with 11 panel members. The products were given one-by-one to the panel members. The products were given in a white polystyrene cup with a white polystyrene spoon in order to prevent sedimentation during tasting. Data were analyzed using SenPaq (Ql-statistics).
The panelists received a reference sample (2 wt.% rapeseed protein isolate in water) with a potency designated by an arbitrary sweetness value of 50 (middle of the scale), followed by several sucrose solutions coded and balanced with potencies higher than or lower than the reference. Panelists scored for example a sample that is perceived as twice as strong as the reference with a score of 100, half the sweetness was given a value of 25. Scores were gathered by means of FIZZ data acquisition on unstructured line scales ranging from 0-100. The various concentrations of sucrose were first determined by a pretest.
To identify the sweetness character (i.e. initial sweetness, lingering) of 2% rapeseed protein isolate in water compared to sucrose solutions (10 g/l, 20 g/l, 30 g/l, 40 g/l and 50 g/l) the samples were taken into the mouth on instruction of the panel leader. Directly the intensity of the sweetness was scored. After three seconds the sample was swallowed and the intensity was scored again, followed by scoring at 5, 10, 20, 30, 60, 90 and 120 seconds after swallowing. Intensity scores were given on unstructured 0-100 line scales in FIZZ. The samples were evaluated one-by-one in duplicate according to an optimally balanced design. Equal sweetness and sweetness character was assessed by comparing a 2 wt.% aqueous solution of the resultant native rapeseed protein isolate with aqueous sucrose solutions of different strengths at room temperature.

With `[Cl-].[Na+]` [sodium chloride], the conductivity result in data set [1] is “around 9,400 µS/cm”.

As for `OC[C@H]1O[C@@](CO)(O[C@H]2O[C@H](CO)[C@@H](O)[C@H](O)[C@H]2O)[C@@H](O)[C@@H]1O` [Sucrose], the “Relative Sweetness” value in data set [2] (10 g/l aqueous solution) turned out to be 35; in data set [2] (20 g/l aqueous solution), 49; in data set [2] (30 g/l aqueous solution), 68; in data set [2] (40 g/l aqueous solution), 70; in data set [2] (50 g/l aqueous solution), 78.
